Source: patent publication US20060058312A1, “Stabilized aqueous preparation for injection” (priority 2004, published 2006)
Read-outs that look alike come from different tables or passages of the source.

Tests used:
[1] = Stability test at 60° C., addition amount of ascorbic acid at pH 8.1 (Example 4), HPLC content; assay type: physicochemical; details: for remaining calcium levofolinate content compared with the initial value (100): 60° C.
Experimental: (§1) For the aqueous preparations obtained in (1) to (3) above, tests evaluating stability at 60° C./3 weeks were performed. The calcium levofolinate content remaining in the aqueous solution was measured using high performance liquid chromatography under the following conditions (the same were employed in the following experiments) 2 ml each of the test preparations were weighed, and 10 ml of the internal standard solution described below (the same was employed in the following experiments) were added thereto. Subsequently, water was added to adjust the total volume of the solution to 50 ml, thereby to prepare a test solution. Meanwhile, 62.5 mg of calcium levofolinate were dissolved in water so as to prepare a 25 ml solution. Then, to 10 ml of the resultant solution were added 10 ml of the internal standard solution, and the total volume of the solution was adjusted to 50 ml by adding water, thereby to prepare a standard solution. For 20 μl of the standard solution and the test solution, the content of calcium levofolinate was measured by the liquid chromatography method under the following conditions.
(§2) 1) Measurement Conditions • Detector: Ultraviolet absorptiometer (Measurement wavelength: 254 nm) • Column: A stainless tube having an internal diameter of 4.0 mm and a length of 15 cm was filled with 5 μm of octadecylsilylated silica gel for liquid chromatography. • Column temperature: A constant temperature near 45° C. • Mobile phase: The pH value of a mixed test solution containing 0.008 mol/L of disodium hydrogen phosphate solution/methanol/40% aqueous tetrabutylammonium hydroxide solution (385:110:1.3 (volume ratio)) was adjusted to 7.5 by adding phosphoric acid. • Flow rate: The flow rate was regulated so that the retention time of calcium levofolinate became about 10 minutes. • Internal standard solution: A solution prepared by adding water to 0.04 g of methyl parahydroxybenzoate so that the whole amount of solution is 100 ml.
About 80 ml of water for injection were added to a beaker (volume: 200 ml). Then 0.56 g of sodium chloride, 0.3 g of tromethamine, and 1.375 g of calcium levofolinate (1.1 g, in terms of 5-formyl-(6S)-tetrahydrofolic acid) were added to it with bubbling of nitrogen gas, and the components were dissolved with stirring (this procedure was performed […]). Subsequently, 0 (no addition), 0.05 g, 0.1 g, 0.3 g, 0.5 g or 1.0 g of ascorbic acid was added to each solution, and was dissolved with stirring, to prepare six solutions. Thereafter, in the case where the addition amount of ascorbic acid is 0 (no addition), 0.05 g, or 0.1 g, the pH value of each solution was adjusted to 8.1 by adding 5% hydrochloric acid dropwise. In the case where the addition amount of ascorbic acid is 0.3 g, 0.5 g, or 1.0 g, the pH value of each solution was adjusted to 8.1 by adding 1% aqueous sodium hydroxide solution dropwise. Water for injection was further added to each solution to adjust the total volume of the solution to 100 ml. Subsequently, the bubbling of nitrogen gas was stopped, and each solution was filtered with a filtration filter, thereby to yield a solution for injection. Subsequently, each of five 5 ml-glass ampules the inside space of which had been substituted by nitrogen gas, was filled with 5 ml of the resultant solution for injection, and it was sealed by heating.
For each aqueous preparation obtained as above, a test evaluating stability at 60° C. was performed by measuring the remaining calcium levofolinate content by the high performance liquid chromatography method.

[2] = assay type: physicochemical; details: buffer, 13 mg/mL, pH 6.2
Experimental: as §1, §2
About 1100 ml of water for injection were added to a beaker. Then, 8.04 g of sodium chloride, 3.6 g of tromethamine, 3.6 g of ascorbic acid, and 1.2 g of sodium pyrosulfite were added thereto with bubbling of nitrogen gas, and the components were dissolved with stirring. To the resultant solution were added 15.62 g of calcium levofolinate, which were dissolved with stirring. Thereafter, the pH value of the solution was adjusted to 6.2 by adding 5% hydrochloric acid solution dropwise. Water for injection was further added to the solution to adjust the total volume to 1200 ml. Subsequently, the bubbling of nitrogen gas was stopped, and the solution was filtered with a filtration filter, thereby to yield a solution for injection. A 5 ml-syringe made of polypropylene, the inside space of which had been substituted by nitrogen gas, was filled with 5 ml of the resultant solution for injection, followed by steam sterilization under high pressure at 105° C. for 30 minutes. The thus-sterilized syringe was packaged together with a deoxidant, AGELESS ZP-50 (trade name, Mitsubishi Gas Chemical Company, Inc. Japan) by using a plastic film with high air impermeability.
For an aqueous preparation as obtained above, a stability test (60° C./75% RH, and 40° C./75% RH) was performed by measuring the content of calcium levofolinate remaining after storage for a certain period by the high performance liquid chromatography method.

## Nc1nc(=O)c2c([nH]1)NC[C@H](CNc1ccc(C(=O)N[C@@H](CCC(=O)O)C(=O)O)cc1)N2C=O [calcium levofolinate, (6S)-N-[4-[[(2-amino-5-formyl-1,4,5,6,7,8-hexahydro-4-oxo-6-pteridinyl)methyl]amino]benzoyl]-L-glutamic acid]
[1]; ascorbic acid 0% (No addition), 1 month
  remaining calcium levofolinate content compared with the initial value (100): 79.7
[1]; ascorbic acid 0% (No addition), 1 week
  remaining calcium levofolinate content compared with the initial value (100): 94.1
[1]; ascorbic acid 0% (No addition), 2 weeks
  remaining calcium levofolinate content compared with the initial value (100): 88.7
[1]; ascorbic acid 0% (No addition), 3 weeks
  remaining calcium levofolinate content compared with the initial value (100): 86.0
[1]; ascorbic acid 0% (No addition)
  calcium levofolinate content, Initial value (100): 100
[1]; ascorbic acid 0.05%, 1 month
  remaining calcium levofolinate content compared with the initial value (100): 82.6
[1]; ascorbic acid 0.05%, 1 week
  remaining calcium levofolinate content compared with the initial value (100): 96.4
[1]; ascorbic acid 0.05%, 2 weeks
  remaining calcium levofolinate content compared with the initial value (100): 92.4
[1]; ascorbic acid 0.05%, 3 weeks
  remaining calcium levofolinate content compared with the initial value (100): 87.3
[1]; ascorbic acid 0.05%
  calcium levofolinate content, Initial value (100): 100
[1]; ascorbic acid 0.1%, 1 month
  remaining calcium levofolinate content compared with the initial value (100): 82.2
[1]; ascorbic acid 0.1%, 1 week
  remaining calcium levofolinate content compared with the initial value (100): 97.4
[1]; ascorbic acid 0.1%, 2 weeks
  remaining calcium levofolinate content compared with the initial value (100): 93.1
[1]; ascorbic acid 0.1%, 3 weeks
  remaining calcium levofolinate content compared with the initial value (100): 87.7
[1]; ascorbic acid 0.1%
  calcium levofolinate content, Initial value (100): 100
[1]; ascorbic acid 0.3%, 1 month
  remaining calcium levofolinate content compared with the initial value (100): 81.6
[1]; ascorbic acid 0.3%, 1 week
  remaining calcium levofolinate content compared with the initial value (100): 96.3
[1]; ascorbic acid 0.3%, 2 weeks
  remaining calcium levofolinate content compared with the initial value (100): 91.3
[1]; ascorbic acid 0.3%, 3 weeks
  remaining calcium levofolinate content compared with the initial value (100): 86.9
[1]; ascorbic acid 0.3%
  calcium levofolinate content, Initial value (100): 100
[1]; ascorbic acid 0.5%, 1 month
  remaining calcium levofolinate content compared with the initial value (100): 80.9
[1]; ascorbic acid 0.5%, 1 week
  remaining calcium levofolinate content compared with the initial value (100): 96.5
[1]; ascorbic acid 0.5%, 2 weeks
  remaining calcium levofolinate content compared with the initial value (100): 90.9
[1]; ascorbic acid 0.5%, 3 weeks
  remaining calcium levofolinate content compared with the initial value (100): 86.0
[1]; ascorbic acid 0.5%
  calcium levofolinate content, Initial value (100): 100
[1]; ascorbic acid 1.0%, 1 month
  remaining calcium levofolinate content compared with the initial value (100): 80.3
[1]; ascorbic acid 1.0%, 1 week
  remaining calcium levofolinate content compared with the initial value (100): 95.4
[1]; ascorbic acid 1.0%, 2 weeks
  remaining calcium levofolinate content compared with the initial value (100): 89.8
[1]; ascorbic acid 1.0%, 3 weeks
  remaining calcium levofolinate content compared with the initial value (100): 84.1
[1]; ascorbic acid 1.0%
  calcium levofolinate content, Initial value (100): 100
[2]; 0 months
  remaining ratio (%) of calcium levofolinate: 100%
[2]; 0 weeks
  remaining ratio (%) of calcium levofolinate: 100%
[2]; 1 month
  remaining ratio (%) of calcium levofolinate: 101.2%
[2]; 2 months
  remaining ratio (%) of calcium levofolinate: 100.2%
[2]; 4 months
  remaining ratio (%) of calcium levofolinate: 95.7%
[2]; 6 months
  remaining ratio (%) of calcium levofolinate: 92.8%
[2]; 168 h
  remaining ratio (%) of calcium levofolinate: 99.0%
[2]; 336 h
  remaining ratio (%) of calcium levofolinate: 97.5%
[2]; 504 h
  remaining ratio (%) of calcium levofolinate: 95.8%
[2]; 672 h
  remaining ratio (%) of calcium levofolinate: 94.3%
